Measured values published in US20240158357A1, “NOVEL QUINAZOLINONES THAT INHIBIT THE FORMATION OF TAU OLIGOMERS AND THEIR METHOD OF USE” (OLIGOMERIX INC., priority 2019, published 2024).
Entries after “also recorded” stand apart in the source; their conditions may differ. Counter-ions that a name gives are not always drawn.

How the values were obtained:
[1] = molecular target: T1, recombinant human tau 4R2N (Homo sapiens (Human), UniProt P10636); assay: AlphaLisa Assay (ALA), primary screen for inhibition of tau oligomer formation; type: biochemical; conditions: tau target 300 nM, 4 hours room temperature, compound 0.098 uM-50 uM
Source text: (§1) Bacterial recombinant human tau 4R2N (the largest isoform of tau in the central nervous system, 441 amino acids in length, Seq. ID 1) constructs with either 6X-His or StrepII N-terminal epitope tags were purified from bacterial lysate using denaturing conditions to prepare tau in its monomeric form.
ALA Assay: AlphaLisa Assay (ALA) was used as a primary screen for identifying compounds that inhibit tau oligomer formation. It is a bead based assay that only gives signal when the beads are in close proximity to each other. When the tau monomer (target) is incubated it forms higher order aggregates (dimer, trimer, tetramer, etc) so that when the donor and acceptor beads bind to the epitope tags of tau they are in close proximity and generate signal.
Tau target (equal mixture of each construct at 300 nM) was prepared in buffer (Tris-HCl pH 7.4) and was incubated in 96-well plates at room temperature for 4 hours with vehicle control (DMSO) and a dose range of a compound of the disclosure (0.098 uM-50 uM). AlphaLisa acceptor heads & donor beads with ligands to the epitope tags (Perkin Elmer) were diluted (final 20 ug/mL per bead) in bead buffer (25 mM HEPES pH 7.4, 100 mM NaCl, 0.1% Tween-20), added to the wells and incubated 1 hour at room temperature. The positive control (non-incubated target) & blank (no tau) were prepared and mixed with beads in bead buffer and the plate was read immediately using the EnVision plate reader (Perkin Elmer).

[2] = molecular target: T1, recombinant human tau 4R2N; assay: Confirmatory Assay (CONFA), SDS-PAGE quantification of tau monomer and oligomers; type: biochemical; conditions: tau target 300 nM, 3 hours room temperature, compound 0.098 uM-50 uM
Protocol: as §1
CONFA Assay: Confirmatory Assay (CONFA) used as a secondary screen for confirming the mechanism of action of compounds identified as hits using the ALA assay. The assay is performed using a similar procedure as ALA except that it utilizes SDS-PAGE for visualization and quantification of tau monomer and aggregated species (dimer, trimer, tetramer, pentamer, etc.). Only a single construct of tau without epitope tags is necessary, but the assay can use the same target prepared for the ALA assay also.
For the CONFA assay, Tau target (300 nM) was prepared in buffer (Tris-HCl pH 7.4) and was incubated at room temperature for 3 hours with vehicle control (DMSO) and a dose range of a compound of the disclosure (0.098 uM-50 uM). Samples were mixed with an equal volume of 2×SDS sample buffer (4% SDS, 20% glycerol, 0.004% bromphenol blue, 125 mM Tris HCl, pH 7.0) to resolve tau monomer and disulfide-linked oligomers on 4-20% gradient polyacrylamide gels (Biorad) along with positive control (non-oligomerized tau target). The gels were stained with Oriole Fluorescent Gel Stain (BioRad) and imaged using the FluorChem R system (Protein Simple). AlphaView software (Protein Simple) was used for quantification of tau monomer and oligomers.

[3] = test system: insoluble tau aggregates in the brains of htau mice; assay: htau mouse study, insoluble tau in cortex (mAb DA31); type: in vivo
Protocol: (§2) Four groups of htau mice (n=25 per group) were treated from 2.5 to 6.5 months of age with 0, 10, 40 and 100 mg/kg of compound TO-0582 milled into feed. The study was performed independently and blinded. The primary endpoint of the study was reduction of insoluble tau aggregates in the brains of the mice with statistical significance. […] Methods for biochemical analyses of tau used in this study have been previously described (Acker C M et al. Sensitive quantitative assays for tau and phospho-tau in transgenic mouse models. Neurobiol Aging. 2013. 34:338). The results in FIG. 1 show in vivo efficacy of the compound in reducing tau pathology. Levels of insoluble tau in the cortices of htau mice treated with compound TO-0582 (example 21) were determined using the pan-tau monoclonal antibody (mAb) DA31. These values were normalized to total tau in the lysates of the cortex of each mouse. Error bars indicate standard error of the mean. The P values of comparisons of the groups treated with 10, 40 or 100 mg/kg TO-0582 to the control group (white bar, 0 mg/kg) are 0.0503 (horizontal hatch bar, 10 mg/kg), 0.0154 (diagonal hatch bar, 40 mg/kg) and 0.0488 (vertical hatch bar, 100 mg/kg). * indicates P value <0.05.

htau mice = assay: htau mouse study, tolerability; type: in vivo; conditions: all doses (10, 40, 100 mg/kg in feed)
Protocol: as §2

T1 sequence (P10636 other isoform, or with tags, fused parts or gaps): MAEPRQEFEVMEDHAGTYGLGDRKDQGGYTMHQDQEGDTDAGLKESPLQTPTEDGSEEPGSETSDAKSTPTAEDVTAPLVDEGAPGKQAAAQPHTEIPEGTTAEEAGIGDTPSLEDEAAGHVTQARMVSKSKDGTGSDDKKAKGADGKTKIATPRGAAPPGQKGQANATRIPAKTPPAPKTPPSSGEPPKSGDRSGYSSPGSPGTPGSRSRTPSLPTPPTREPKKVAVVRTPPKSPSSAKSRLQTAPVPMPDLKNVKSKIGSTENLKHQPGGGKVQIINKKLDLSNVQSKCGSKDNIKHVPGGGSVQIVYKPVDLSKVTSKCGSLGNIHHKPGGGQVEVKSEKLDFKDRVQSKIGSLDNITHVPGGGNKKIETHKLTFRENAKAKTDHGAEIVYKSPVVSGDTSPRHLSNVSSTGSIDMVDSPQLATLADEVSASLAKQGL

Structure (SMILES)	IC50 [1] [µM]	IC50 [2] [µM]	also measured
CCc1ccc(-n2c(-c3cccnc3)nc3ccccc3c2=O)cc1F [Ex. 17, 3-(3-Fluoro-4-ethylphenyl)-2-(pyridine-3-yl)quinazolin-4(3H)-one]	24.1		
CCc1ccc2cc(-n3c(-c4cccnc4)nc4ccccc4c3=O)ccc2c1 [Ex. 19, 3-(2-Ethylnaphthalen-6-yl)-2-(pyridine-3-yl)quinazolin-4(3H)-one]	8.05		
CCc1ccc(-n2c(-c3cccnc3)nc3ccccc3c2=O)cc1Br [Ex. 18, 3-(3-Bromo-4-ethylphenyl)-2-(pyridine-3-yl)quinazolin-4(3H)-one]	4.5		
Cc1ccc(-n2c(-c3cccnc3)nc3ccsc3c2=O)cc1O [Ex. 11, 3-(3-Hydroxy-4-methylphenyl)-2-(pyridin-3-yl)thieno[3,2-d]pyrimidin-4(3H)-one]	17.1	57	
CN1CC(C(=O)Nc2ccc(-c3nc4ccccc4c(=O)n3-c3cccnc3)cc2)C1 [Ex. 7, N-(4-(3,4-Dihydro-4-oxo-3-(pyridin-3-yl)quinazolin-2-yl)phenyl)-1-methylazetidine-3-carboxamide dihydrochloride]	9.6	12.1	
O=c1c2ccccc2nc(-c2cccnc2)n1-c1ccc(Cl)c(O)c1 [Ex. 2, 3-(4-Chloro-3-hydroxyphenyl)-2-(pyridin-3-yl)quinazolin-4(3H)-one hydrochloride]	5.78	31.9	
O=c1c2ccccc2nc(-c2cccnc2)n1-c1cccc(O)c1 [Ex. 21, 3-(3-Hydroxyphenyl)-2-(pyridin-3-yl)quinazolin-4(3H)-one hydrochloride]	5.14	5.67	reduction of insoluble tau, statistical significance ([3]; 40 mg/kg and 100 mg/kg doses, male htau mice): achieved with statistical significance; reduction of insoluble tau aggregates in the brains ([3]; htau mice, 10, 40 and 100 mg/kg milled into feed, 2.5 to 6.5 months of age, listed as TO-0582, hydrochloride): reduced insoluble tau at all doses; also recorded: achieved with statistical significance; tolerability over the course of the study (htau mice): well tolerated; toxic effects on weight, behavior or morbidity (htau mice): did not cause toxic effects
Cc1ccc(-n2c(-c3cccnc3)nc3ccccc3c2=O)cc1O [Ex. 20, 3-(4-Methyl-3-hydroxyphenyl)-2-(pyridin-3-yl)quinazolin-4(3H)-one hydrochloride]	1.9	4.18	
O=c1c2ccccc2nc(-c2cccnc2)n1-c1cccc(OCc2ccccc2)c1 [Ex. 4, 3-(3-(Benzyloxy)phenyl)-2-(pyridin-3-yl)quinazolin-4(3H)-one hydrochloride]	7.8	3.19	
COc1ccc(-n2c(-c3ccc(NC(C)=O)cc3)nc3ccsc3c2=O)cn1 [Ex. 13, N-(4-(3,4-Dihydro-3-(6-methoxypyridin-3-yl)-4-oxothieno[3,2-d]pyrimidin-2-yl)phenyl)acetamide]	13.6		

More lines, main results first:

IC50 [1] [µM]	IC50 [2] [µM]	Structure (SMILES)	also measured
4.53	1.7	CCc1ccc(-n2c(-c3ccc(NC(C)=O)cc3)nc3ccsc3c2=O)cc1O [Ex. 16, N-(4-(3-(4-ethyl-3-hydroxyphenyl)-4-oxo-3,4-dihydrothieno[3,2-d]pyrimidin-2-yl)phenyl)acetamide]	
26.3		O=c1c2sccc2nc(-c2cccnc2)n1-c1cccnc1 [Ex. 10, 2,3-Di(pyridin-3-yl)thieno[3,2-d]pyrimidin-4(3H)-one]	
9.93	8.94	O=c1c2ccccc2nc(-c2cccnc2)n1CCCCO [Ex. 3, 3-(4-Hydroxybutyl)-2-(pyridin-3-yl)quinazolin-4(3H)-one hydrochloride]	
	59.2	O=c1[nH]c(-c2cccnc2)nc2cnccc12 [Ex. 6, 2-(Pyridin-3-yl)pyrido[3,4-d]pyrimidin-4(3H)-one dihydrochloride]	
3.72	7.6	O=c1[nH]c(-c2cccnc2)nc2ccsc12 [Ex. 15, 2-(pyridin-3-yl)thieno[3,2-d]pyrimidin-4(3H)-one]	
6.25	22.3	COc1ccc(-n2c(-c3cccnc3)nc3ccsc3c2=O)cn1 [Ex. 14, 3-(6-Methoxypyridin-3-yl)-2-(pyridin-3-yl)thieno[3,2-d]pyrimidin-4(3H)-one dihydrochloride]	
6.89	62.4	CN1CC(C(=O)Nc2ccc(-c3nc4ccsc4c(=O)[nH]3)cc2)C1 [Ex. 9, N-(4-(3,4-Dihydro-4-oxothieno[3,2-d]pyrimidin-2-yl)phenyl)-1-methyl azetidine-3-carboxamide hydrochloride]	
